Measured values reported in article PMC12298648, “An Evaluation of the Cytotoxicity and Safety Profile of Usnic Acid for a Broad Panel of Human Cancers and Normal Cells with Respect to Its Enantiospecificity” (Molecules, 2025).
≈ marks a conversion by molar mass, not a printed value.

Key:
[1] = tested on: PNT2; experiment: MTT viability assay, normal prostate epithelial cells; format: cell-based, human; conditions: for IC50: Homo sapiens; for Cell viability: PNT2, 24 h
Excerpt: (§1) Cell lines of different origins were used in the study and grouped as follows: prostate panel (human prostate carcinomas: DU145, derived from metastatic site: brain; grade IV PC3, derived from metastatic site: bone; LNCaP, derived from the metastatic site: lymph node; prostate epithelial, PNT2), colon panel (colorectal adenocarcinomas: HT29, originating from a primary tumor; Duke’s type C DLD-1, with the potential to lymph node metastasis; highly metastatic HCT116; colon epithelial cells CCD 841 CoN), thyroid panel (follicular thyroid carcinoma FTC133, anaplastic thyroid carcinoma 8505C, papillary thyroid carcinoma TPC-1, normal thyroid follicular epithelial Nthy-ori 3–1), breast panel (ER-positive breast adenocarcinoma MCF7, ER-negative breast adenocarcinoma MDA-MB-231, breast epithelial MCF10A), brain panel (neuroblastoma SH-SY5Y, glioblastoma U-87 MG, murine astrocytes C8D1A). All cell lines were purchased from Merck (Darmstadt, Germany).
(§2) Cells were grown under standard conditions (37 °C, 5% CO2) and culture media (DMEM/F12 for PNT2, PC3, FTC133, 8505 C, MDA-MB-231, TPC-1; DMEM Low Glucose for DU145; DMEM High Glucose for HCT116, DLD-1, SH-SY5Y, U87MG, C8D1A; MEM with NEAA for MCF7; MEM for CCD 841 CoN; McCoy’s for HT29; RPMI1640 with sodium pyruvate for LNCaP; DMEM/F12 with 20 ng/mL epidermal growth factor (EGF), 10 μg/mL insulin, 0.5 μg/mL hydrocortisone, 100 ng/mL cholera toxin) for MCF10A), supplemented with 10% fetal bovine serum (FBS) or 5% donor horse serum for MCF10A, and 1% antibiotics solution (10,000 U penicillin and 10 mg streptomycin/mL). The tested substances were prepared as 10 mg/mL stock solutions in DMSO and further diluted in the culture media to the working concentrations. Cells were treated with UA enantiomers at the concentration range of 0–50 µg/mL. The influence of DMSO on cell viability was also examined, with the final concentration […], and no toxic effect was noted.
(§3) The cells were seeded onto 96-well plates at a density of 1.5 × 10^4 cells/well. After 24 h UA enantiomers were added. Cell viability was determined after 24, 48, and 72 h by the MTT assay, as described previously. Doxorubicin was used as a reference cytostatic drug. All analyses were performed in triplicate; cell viability was expressed as % of control, untreated cells (mean ± SD), and IC50 values (concentration at which cell viability is inhibited by 50%), if possible.

[2] = tested on: DU145; experiment: MTT viability assay, DU145 prostate cancer cells; format: cell-based, human; conditions: for Cell viability: DU145, 24 h; for IC50: Homo sapiens, DU-145
Excerpt: as §1, §2, §3
(§4) The selectivity index (SI) was calculated, if possible, by dividing the IC50 value obtained for non-cancerous cells line by the IC50 values obtained for appropriate cancer cell line, as described previously. […] The values above 3 indicate good selectivity.

[3] = tested on: C8D1A; experiment: MTT viability assay, normal astrocytes C8D1A; format: cell-based, murine; conditions: C8D1A, 24 h
Excerpt: as §1, §2, §3

[4] = tested on: LNCaP; experiment: MTT viability assay, LNCaP prostate cancer cells; format: cell-based, human; conditions: for Cell viability: 24 h; for IC50: Homo sapiens
Excerpt: as §1, §2, §3

[5] = tested on: MCF7; experiment: MTT viability assay, MCF7 breast cancer cells; format: cell-based, human; conditions: for IC50: Homo sapiens; for Cell viability: MCF7, 24 h
Excerpt: as §1, §2, §3, §4

[6] = tested on: SH-SY5Y; experiment: MTT viability assay, neuroblastoma SH-SY5Y cells; format: cell-based, human; conditions: SHSY5Y, 24 h
Excerpt: as §1, §2, §3

[7] = tested on: TPC-1; experiment: MTT viability assay, TPC-1 papillary thyroid carcinoma cells; format: cell-based, human; conditions: for IC50: Homo sapiens, TPC1; for Cell viability: TPC-1, 24 h
Excerpt: as §1, §2, §3, §4

[8] = tested on: Nthy ori 3-1; experiment: MTT viability assay, normal thyroid follicular epithelial cells; format: cell-based, human; conditions: for IC50: Homo sapiens; for Cell viability: Nthy ori 3-1, 24 h
Excerpt: as §1, §2, §3

[9] = tested on: HT29; experiment: MTT viability assay, HT29 colon cancer cells; format: cell-based, human; conditions: for Cell viability: HT29, 24 h; for IC50: Homo sapiens, HT-29
Excerpt: as §1, §2, §3

[10] = tested on: WM793 cells; design: method as in PMID 34577645; conditions: WM793, 48 h; cited from earlier work

SMILES: CC(=O)C1=C(O)C=C2Oc3c(C(C)=O)c(O)c(C)c(O)c3[C@]2(C)C1=O [UA(−), (−)-usnic acid]
- IC50 ([1]; PNT2, 48 h): 35.4 µg/mL (≈ 103 µM)
- IC50 ([1]; PNT2, 72 h): 27.8 µg/mL (≈ 80.7 µM)
- Cell viability ([1]; 2.5 µg/mL): 103.40 % of control
- Cell viability ([1]; 5 µg/mL): 99.24 % of control
- Cell viability ([1]; 10 µg/mL): 91.32 % of control
- Cell viability ([1]; 20 µg/mL): 83.13 % of control
- Cell viability ([1]; 30 µg/mL): 74.58 % of control
- Cell viability ([1]; 40 µg/mL): 68.75 % of control
- Cell viability ([1]; 50 µg/mL): 54.38 % of control
- Cell viability ([2]; 2.5 µg/mL): 99.84 % of control
- Cell viability ([2]; 5 µg/mL): 89.03 % of control
- Cell viability ([2]; 10 µg/mL): 82.15 % of control
- Cell viability ([2]; 20 µg/mL): 77.63 % of control
- Cell viability ([2]; 30 µg/mL): 68.28 % of control
- Cell viability ([2]; 40 µg/mL): 64.95 % of control
- Cell viability ([2]; 50 µg/mL): 65.86 % of control
- IC50 ([2]; DU145, 48 h): 34.8 µg/mL (≈ 101 µM)
- IC50 ([2]; DU145, 72 h): 18.6 µg/mL (≈ 54 µM)
- selectivity index (SI) ([2]; IC50 PNT2 / IC50 DU145, 48 h): 1.02
- selectivity index (SI) ([2]; IC50 PNT2 / IC50 DU145, 72 h): 1.49
- Cell viability ([3]; 2.5 µg/mL): 100.83 % of control
- Cell viability ([3]; 5 µg/mL): 99.17 % of control
- Cell viability ([3]; 10 µg/mL): 95.67 % of control
- Cell viability ([3]; 20 µg/mL): 96.00 % of control
- Cell viability ([3]; 30 µg/mL): 88.42 % of control
- Cell viability ([3]; 40 µg/mL): 90.58 % of control
- Cell viability ([3]; 50 µg/mL): 104.75 % of control
- Cell viability ([4]; 2.5 µg/mL): 100.45 % of control
- Cell viability ([4]; 5 µg/mL): 98.18 % of control
- Cell viability ([4]; 10 µg/mL): 88.48 % of control
- Cell viability ([4]; 20 µg/mL): 85.30 % of control
- Cell viability ([4]; 30 µg/mL): 81.97 % of control
- Cell viability ([4]; 40 µg/mL): 79.09 % of control
- Cell viability ([4]; 50 µg/mL): 89.39 % of control
- IC50 ([4]; 48 h): > 50 µg/mL
- IC50 ([4]; 72 h): > 50 µg/mL
- IC50 ([5]; MCF7, 48 h): > 50 µg/mL
- IC50 ([5]; MCF7, 72 h): 33.4 µg/mL (≈ 97 µM)
- Cell viability ([5]; 2.5 µg/mL): 124.74 % of control
- Cell viability ([5]; 5 µg/mL): 113.59 % of control
- Cell viability ([5]; 10 µg/mL): 110.03 % of control
- Cell viability ([5]; 20 µg/mL): 106.15 % of control
- Cell viability ([5]; 30 µg/mL): 109.10 % of control
- Cell viability ([5]; 40 µg/mL): 106.28 % of control
- Cell viability ([5]; 50 µg/mL): 91.15 % of control
- Cell viability ([6]; 2.5 µg/mL): 96.79 % of control
- Cell viability ([6]; 5 µg/mL): 99.17 % of control
- Cell viability ([6]; 10 µg/mL): 98.10 % of control
- Cell viability ([6]; 20 µg/mL): 96.67 % of control
- Cell viability ([6]; 30 µg/mL): 92.62 % of control
- Cell viability ([6]; 40 µg/mL): 98.57 % of control
- Cell viability ([6]; 50 µg/mL): 99.40 % of control
- IC50 ([7]; TPC-1, 48 h): > 50 µg/mL
- IC50 ([7]; TPC-1, 72 h): 39.2 µg/mL (≈ 114 µM)
- selectivity index (SI) ([7]; IC50 Nthy ori 3-1 / IC50 TPC-1, 72 h): 0.74
- Cell viability ([7]; 2.5 µg/mL): 96.85 % of control
- Cell viability ([7]; 5 µg/mL): 104.40 % of control
- Cell viability ([7]; 10 µg/mL): 96.79 % of control
- Cell viability ([7]; 20 µg/mL): 93.49 % of control
- Cell viability ([7]; 30 µg/mL): 91.95 % of control
- Cell viability ([7]; 40 µg/mL): 92.26 % of control
- Cell viability ([7]; 50 µg/mL): 92.38 % of control
- IC50 ([8]; Nthy-ori 3-1, 48 h): > 50 µg/mL
- IC50 ([8]; Nthy-ori 3-1, 72 h): 29.3 µg/mL (≈ 85.1 µM)
- Cell viability ([8]; 2.5 µg/mL): 97.23 % of control
- Cell viability ([8]; 5 µg/mL): 99.36 % of control
- Cell viability ([8]; 10 µg/mL): 94.52 % of control
- Cell viability ([8]; 20 µg/mL): 93.76 % of control
- Cell viability ([8]; 30 µg/mL): 95.25 % of control
- Cell viability ([8]; 40 µg/mL): 96.10 % of control
- Cell viability ([8]; 50 µg/mL): 98.58 % of control
- Cell viability ([9]; 2.5 µg/mL): 102.45 % of control
- Cell viability ([9]; 5 µg/mL): 90.48 % of control
- Cell viability ([9]; 10 µg/mL): 84.03 % of control
- Cell viability ([9]; 20 µg/mL): 79.62 % of control
- Cell viability ([9]; 30 µg/mL): 74.37 % of control
- Cell viability ([9]; 40 µg/mL): 72.48 % of control
- Cell viability ([9]; 50 µg/mL): 73.95 % of control
- IC50 ([9]; HT29, 48 h): > 50 µg/mL
- IC50 ([9]; HT29, 72 h): 32.7 µg/mL (≈ 95 µM)
- IC50 [10]: 52.09 µg/mL (≈ 151 µM)
